Patent US11236102B2, “Oxabicycloheptane prodrugs” (Lixte Biotechnology, Inc., priority 2015, dated 2022)
“And” between values parts separate entries of the source, which are not always exact repeats. Identical values can stand only once. Marks after values point to notes of the source that are not given here.

Test: Pharmacokinetic study of 153 (iv, po) in SD rats: 153 and endothal in plasma, liver, brain
Format: in vivo, SD rats
Experimental: The blood, liver and brain tissue samples were collected at predetermined times from rats. […] Compound were diluted shortly before use in 4% sodium bicarbonate for sterile injection (this is the standard pediatric solution of NaHCO3 with a pH of about 8.5).
Compound 153 was freshly prepared by diluting the drugs shortly before use in 4% sodium bicarbonate for sterile injection (this is the standard pediatric solution of NaHCO3 with a pH of about 8.5). The final concentrations of 153 solutions were 0.25 mg/mL. The 153 solutions were administered via iv or po route at dose volume of 5 ml/kg according to the latest body weight. Compound 157 was freshly prepared by diluting the drugs shortly before use in 4% sodium bicarbonate for sterile injection (this is the standard pediatric solution of NaHCO3 with a pH of about 8.5). The final concentrations of […] solutions were 0.3 mg/mL. The 157 solutions were administered via iv or po route at dose volume of 5 ml/kg according to the latest body weight.
Twelve (12) female SD rats per group were dosed by iv with 153 or 157. The rats were fasted overnight prior to dosing, with free access to water. Foods were withheld for 2 hours post-dose. Blood, liver and brain tissue samples in two animals each group were collected at each time point, within 10% of the scheduled time for each time point. Two extra animals were used for analytic method development.
Blood (>0.3 mL) were collected via aorta abdominalis in anaesthetic animals into tubes containing heparin at 15 min, 1, 2, 6, 10 and 24 hours after iv administration. Liver and brain tissues were collected immediately after animal death. The liver and brain tissues were excised and rinsed with cold saline to avoid blood residual. Upon collection, each sample was placed on ice and the blood samples were subsequently centrifuged (4° C., 11000 rpm, 5 min) to separate plasma.
The obtained plasma, liver and brain tissue samples were stored at −70° C. until LC-MS/MS analysis.
Two (2) female SD rats per group were dosed by po with 153 or 157. The rats were fasted overnight prior to dosing, with free access to water. Foods were withheld for 2 hours post-dose. Blood samples (>0.3 mL) were collected via aorta abdominalis in anaesthetic animals into tubes containing heparin at 30 min, 1, 2, 6, 10 and 24 hours after po administration.
To each sample, 20 μL IS-D (for blank samples, 20 μL acetonitrile:water (1:1) was added) and 300 μl acetonitrile was added. The sample mixture was vortexed for approximately 3 min. After centrifugation at 10000 rpm for 5 min at 4° C., 100 μL of the upper layer was transferred to a new tube and added 200 μL 0.4% formic acid in water (pH 6.0). The mixture was vortexed for approximately 3 min before injected onto the LC/MS/MS system for analysis.
On the day of the assay, the frozen liver and brain samples were thawed unassisted at room temperature. An about 200 mg weighed sample of each thawed tissue was placed into a plastic tube with water (0.6 mL) to facilitate homogenization. Tissue processing was conducted using a homogenizer for approximately 1 min, 200 μl homogenate was transferred into a fresh Eppendorf tube. To each tube, 50 μL IS-D was added and mixed. Then 600 ul acetonitrile was added and the sample mixture was vortexed for approximately 3 min. After centrifugation at 10000 rpm for 5 min at 4° C., 400 μL of the upper layer was transferred to a new tube and evaporate the supernatant to dryness at 35° C. Reconstitute the residue with 200 μL of 0.4% formic acid in water (pH6.0), and vortex for 3 min, submit for LC-MS/MS analysis.
Frozen unknown plasma samples were completely thawed at room temperature and vortexed thoroughly. With a pipette, 50 μL of plasma was transferred into a 2.0 mL Eppendorf tube. 50 μL of 0.1N HCl and 800 μL ethyl acetate were added into each sample. The sample mixture was vortexed for approximately 3 min.

[1] = iv 1.25 mg/kg, 0.25 hr, individual rats, 1.25 mg/kg
[2] = iv 1.25 mg/kg, 1 hr, individual rats, 1.25 mg/kg
[3] = iv 1.25 mg/kg, 2 hr, individual rats, 1.25 mg/kg
[4] = plasma, 153 1.25 mg/kg PO, individual rats, 1.25 mg/kg

## CCCOC(=O)C1C2CCC(O2)C1C(=O)N1CCN(C)CC1 (stereo not shown) [Compound 153]
PO 1.25 mg/kg, 0.25 hr, individual rats, 1.25 mg/kg
  153 plasma concentration: 652 ng/mL
PO 1.25 mg/kg, 1 hr, individual rats, 1.25 mg/kg
  153 plasma concentration: 121 ng/mL
female, SD, rat, in vivo, iv, 1.25 mg/kg, MRT (0 t)
  MRT: 40 min
female, SD, rat, in vivo, po, 1.25 mg/kg
  MRT (0 t): 60.6 min
female, SD, rat, in vivo, po, 1.25 mg/kg, MRT (0 t)
  MRT: 59.2 min
female, SD, rat, in vivo, plasma, 153 1.25 mg/kg PO, individual rats, read-out: MRT (0 t)
  MRT: 62.4 min
female, Sprague-Dawley, rat, in vivo, iv, 1.25 mg/kg
  Cmax: 762 ng/g
female, Sprague-Dawley, rat, in vivo, po, 1.25 mg/kg
  concentration at 2 hr: 42 ng/mL
female, Sprague-Dawley, rat, in vivo, po, 1.25 mg/kg, PO 1.25 mg/kg, 0.25 hr, individual rats
  concentration at 0.25 hr: 872 ng/mL
female, Sprague-Dawley, rat, in vivo, po, 1.25 mg/kg, PO 1.25 mg/kg, 0.25 hr, mean
  concentration at 0.25 hr: 762 ng/mL
female, Sprague-Dawley, rat, in vivo, po, 1.25 mg/kg, PO 1.25 mg/kg, 1 hr, individual rats
  concentration at 1 hr: 131 ng/mL
female, Sprague-Dawley, rat, in vivo, po, 1.25 mg/kg, PO 1.25 mg/kg, 1 hr, mean
  concentration at 1 hr: 126 ng/mL
female, Sprague-Dawley, rat, in vivo, po, 1.25 mg/kg, PO 1.25 mg/kg, 2 hr, individual rats, read-out: 153 plasma concentration
  concentration at 2 hr: 41.2 ng/mL
female, Sprague-Dawley, rat, in vivo, po, 1.25 mg/kg, PO 1.25 mg/kg, 2 hr, mean, read-out: 153 plasma concentration
  concentration at 2 hr: 41.6 ng/mL
[1]
  153 brain concentration: 45 ng/g and 40.3 ng/g
  153 liver concentration: 872 ng/g and 652 ng/g
  153 plasma concentration: 563 ng/mL and 550 ng/mL
Iv 1.25 mg/kg, 0.25 hr, mean
  153 brain concentration: 42.7 ng/g
  153 liver concentration: 762 ng/g
  153 plasma concentration: 557 ng/mL
[2]
  153 brain concentration: 13.9 ng/g and 14.3 ng/g
  153 liver concentration: 131 ng/g and 121 ng/g
  153 plasma concentration: 58 ng/mL and 51.4 ng/mL
Iv 1.25 mg/kg, 1 hr, mean
  153 brain concentration: 14.1 ng/g
  153 liver concentration: 126 ng/g
  153 plasma concentration: 54.7 ng/mL
[3]
  153 brain concentration: 4.05 ng/g and 4.75 ng/g
  153 liver concentration: 42 ng/g and 41.2 ng/g
  153 plasma concentration: 14.8 ng/mL and 13 ng/mL
Iv 1.25 mg/kg, 2 hr, mean
  153 brain concentration: 4.4 ng/g
  153 liver concentration: 41.6 ng/g
  153 plasma concentration: 13.9 ng/mL
Iv 1.25 mg/kg, 6 hr, individual rats, 1.25 mg/kg
  153 plasma concentration: 1.04 ng/mL and 1.02 ng/mL
Iv 1.25 mg/kg, 6 hr, mean
  153 plasma concentration: 1.03 ng/mL
Iv 1.25 mg/kg, 10 hr, individual rat, abnormal, not included in the calculation
  153 plasma concentration: 9.42* ng/mL
Iv administration of 153
  T1/2 in brain: 35.8 min
  T1/2 in liver: 37.6 min
plasma, 153 1.25 mg/kg IV, individual rats, 1.25 mg/kg
  Cmax: 563 ng/mL
[4]
  AUC: 163 ng·h/mL
  AUC0-∞: 163 ng·h/mL
rat, in vivo, iv
  AUClast in brain: 39.4 ng·h/g
  AUClast in liver: 500 ng·h/g
rat, in vivo, po, 1.25 mg/kg
  oral availability: orally available
